The data set is described as follows: Volume of distribution at steady state in Sprague-Dawley rat at 0.5 mg/kg, iv by LCMS/MS analysis. It counts as ADME, organism-based. Particulars: in vivo, read-out: Vdss.

`Cc1c[nH]c2ncnc(N3CCC(CN)(C(=O)Nc4cccc(OC(=O)N(C)C)c4)CC3)c12` [LX-7101]: the Vd was found to be 0.5 L/kg.

The record behind these values is ChEMBL document CHEMBL5108064, “Comparative Analysis of Small-Molecule LIMK1/2 Inhibitors: Chemical Synthesis, Biochemistry, and Cellular Activity” (J Med Chem, 2022).
